Source: US4983622A, “6-substituted-4-dialkylaminotetrahydrobenz(c,d)indoles” (Eli Lilly and Company, priority 1985, dated 1991)

Tests used:
[1] = test system: dopamine uptake, bovine striatal membrane; details: in vitro; cited from earlier work
serum corticosteroids = test: Serum corticosterone; format: in vivo, Wistar rats; details: 0.3 mg/kg s.c., 1 hour; control 7 ± 1; * statistically significant
Description: (§1) The following protocol was employed. 150-200 g. Wistar rats were given 0.3 mg/kg subcutaneously of (±)-4-di-n-propylamino-6-substituted-1,3,4,5-tetrahydrobenz[c,d]indole.Then, 60 minutes later each rat was decapitated and the hypothalamus and striatum were dissected out and extracted. The amounts of homovanillic acid (HVA) and 3,4-dihydroxyphenylacetic acid (DOPAC) in the striatum and of 5-hydroxyindoleacetic acid (5HIAA) in the hypothalamus were measured by high-performance liquid chromatography, using electrochemical detection. Serum corticosteroids were also measured. In the table, columns 1 and 2 give the substitution pattern in the compounds of formula IV, columns 3-5, the 5HT or dopamine metabolite concentrations, and column 6, the serum corticosteroids.
(§2) Compounds were injected at 0.3 mg/kg s.c. 1 hour before rats were killed.

[2] = test system: dopamine metabolites in striatum; test: Changes in dopamine metabolites (DOPAC, HVA) in striatum; format: in vivo, Wistar rats; details: 0.3 mg/kg s.c., 1 hour, * statistically significant; for Dopamine Metabolites In Striatum, HVA: control 4.24 ± .27; for Dopamine Metabolites In Striatum, DOPAC: control 5.58 ± .38
Description: (§3) Secondly, as a measure of central serotonin agonist activity, the decrease of serotonin metabolites in brain was measured. Also the measure of dopamine agonist activity was indicated by changes in dopamine metabolites.
as §1, §2

[3] = target: ^3 H-serotonin (^3 H-5HT) receptor binding, rat cerebral cortex membranes; test: Receptor binding, inhibition of specific ^3 H-5HT (tritiated serotonin) binding; design: species or system male Wistar rats; details: 15 min at 37°, pH 7.4, 2-3 nM ^3 H-serotonin, read-out: ^3 H-Ligand-IC50, ^3 H-5HT
[4] = test system: serotonin turnover in brain (5-HTP accumulation); test: 5-HTP accumulation in hypothalamus after decarboxylase block by m-hydroxybenzylhydrazine (serotonin turnover); format: in vivo, Wistar rats
Description: Thirdly, as a measure of central serotonin agonist activity, the test rats received (±)-4-di-n-propylamino-6-methoxy-1,3,4,5-tetrahydrobenz[c,d]indole. The decrease of serotonin turnover in brain was measured as a function of 5-hydroxytryptophane (5-HTP) accumulation when the decarboxylation of 5-HTP is blocked by m-hydroxybenzylhydrazine, using the above protocol, except that thirty minutes after injection of the drug, m-hydroxybenzylhydrazine was injected at 100 mg./kg. i.p. Then, 40 minutes later each rat was decapitated, the hypothalamus dissected out and extracted. The amount of 5-HTP in each extract were measured by high-performance liquid chromatography, using electrochemical detection. In normal rats, 5-HTP brain levels are so low as to be virtually undetectable. Thus, the control group received the same dose of m-hydroxybenzylhydrazine as the test rats but no drug.

[5] = test system: serotonin metabolites in brain (5HIAA in hypothalamus); test: Decrease of serotonin metabolite (5HIAA) in hypothalamus; format: in vivo, Wistar rats; details: 0.3 mg/kg s.c., 1 hour; control 2.59 ± .11; * statistically significant
Description: as §3, §1, §2

[6] = target: T1, ^3 H-spiperone receptor binding, rat cerebral cortex membranes (Rattus norvegicus, UniProt P14842); test: Receptor binding, inhibition of specific ^3 H-spiperone binding; design: species or system male Wistar rats; details: 15 min at 37°, pH 7.4, 0.6-0.7 nM ^3 H-spiperone, read-out: ^3 H-Ligand-IC50, ^3 H-SPIP
T1 construct: The cerebral cortex was dissected out and then homogenized and centrifuged; from tissue; host or cells: cerebral cortex membranes of male Wistar rats
T1 sequence (P14842 whole entry): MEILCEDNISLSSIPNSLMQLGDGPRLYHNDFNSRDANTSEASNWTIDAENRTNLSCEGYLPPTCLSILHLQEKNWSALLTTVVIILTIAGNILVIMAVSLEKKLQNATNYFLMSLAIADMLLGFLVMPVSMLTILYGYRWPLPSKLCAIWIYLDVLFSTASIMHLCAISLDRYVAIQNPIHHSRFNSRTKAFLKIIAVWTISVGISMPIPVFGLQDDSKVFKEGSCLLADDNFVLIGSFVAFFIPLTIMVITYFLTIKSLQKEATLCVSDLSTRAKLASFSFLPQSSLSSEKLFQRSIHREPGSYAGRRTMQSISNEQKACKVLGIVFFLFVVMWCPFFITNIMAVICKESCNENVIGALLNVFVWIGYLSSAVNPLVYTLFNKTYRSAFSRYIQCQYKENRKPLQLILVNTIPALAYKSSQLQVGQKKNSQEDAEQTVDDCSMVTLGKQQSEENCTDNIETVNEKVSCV
Description: The cerebral cortex was dissected out and then homogenized and centrifuged according to the method described by Nelson and coworkers Mol. Pharmacol., 14, 983-995 (1978), using preincubation in buffer without added monoamine oxidase inhibitor in order to eliminate endogenous serotonin. For receptor binding, each sample contained 300-400 μg. of membrane protein and 10 μM pargyline in addition to the ^3 H-ligand in 1 ml. of 0.05 M Tris buffer, pH=7.4. The assay of serotonin binding was done following the method of Bennett and Snyder, Mol. Pharmacol., 12, 373-389 (1976), and that for tritiated spiperone according to Peroutka and Snyder, Mol. Pharmacol. 16 687-699 (1979). The samples were incubated for 15 minutes at 37° and were then filtered through GF/C glass fiber filter pads using a Brandel M-24 cell harvester modified for receptor binding. After two 5 ml. rinses, the filter discs were put into scintillation vials and counted in 10 ml. of Amersham PCS scintillation fluid. Nonspecific binding of ^3 H-serotonin (^3 H-5HT) was determined in the presence of 10^-5 M serotonin and of ^3 H-spiperone in the presence of 10^-6 M LSD. Specific binding was calculated as the difference between total binding with no added nonradioactive compound and the nonspecific binding.

serotonin = details: Harris and Uhle; cited from earlier work

| Structure (SMILES) | selective dopamine agonist, action in inhibiting dopamine uptake [1] | Serum Corticosterone (serum corticosteroids) [MCG/100 ML] | Dopamine Metabolites In Striatum, HVA [2] | Dopamine Metabolites In Striatum, DOPAC [2] | IC50 [3] [nM] | 5HTP Level in Nanomoles of Hypothalamus ± S.E. ([4]; 0.03 mg/kg, m-hydroxybenzylhydrazine 100 mg/kg i.p., zero dose 1.81 ± 0.11) [Nanomoles] | 5HTP Level in Nanomoles of Hypothalamus ± S.E. ([4]; 0.10 mg/kg, m-hydroxybenzylhydrazine 100 mg/kg i.p., zero dose 1.81 ± 0.11, * P < .05) [Nanomoles] | 5HTP Level in Nanomoles of Hypothalamus ± S.E. ([4]; 0.30 mg/kg, m-hydroxybenzylhydrazine 100 mg/kg i.p., zero dose 1.81 ± 0.11, * P < .05) [Nanomoles] | 5HTP accumulation ([4]; certain dose levels, hypothalamus) | 5HTP Level in Nanomoles of Hypothalamus ± S.E. ([4]; ip, 0.01 mg/kg) [Nanomoles] | 5HIAA In Hypothalamus [5] | IC50 [6] [nM] | serotonin antagonism (serotonin) |
| --- | --- | --- | --- | --- | --- | --- | --- | --- | --- | --- | --- | --- | --- |
| CCCN(CCC)C1Cc2cccc3[nH]cc(c23)C1 (racemic) [(±)-4-di-n-propylamino-1,3,4-5-tetrahydrobenz[c,d]indole] | selective dopamine agonist | – | – | – | – | – | – | – | – | – | – | – | – |
| CCCN(CCC)C1Cc2c[nH]c3ccc(OC)c(c23)C1 (racemic) [(±)-4-di-n-propylamino-6-methoxy-1,3,4,5-tetrahydrobenz[c,d]indole] | – | 48 ± 2 | 2.43 ± .18 NMoles/G | 4.61 ± .10 NMoles/G | 50 | 1.72 ± 0.07 | 1.16 ± 0.05 | 0.97 ± 0.03 | significantly decreased 5HTP accumulation | 1.85 ± 0.06 | 1.51 ± .05 NMoles/G | 950 | – |
| COc1ccc2[nH]cc3c2c1CC(N(C)C)C3 (racemic) [(±)-4-dimethylamino-6-methoxy-1,3,4,5-tetrahydrobenz[c,d]indole] | – | 41 ± 4 | 4.68 ± .21 NMoles/G | 7.15 ± .23 NMoles/G | 70 | – | – | – | – | – | 1.69 ± .07 NMoles/G | 1490 | – |
| CC(=O)NC1Cc2c[nH]c3cccc(c23)C1=O (stereo not shown) [4-acetylamino-5-oxo derivative] | – | – | – | – | – | – | – | – | – | – | – | – | one exception |
